Experimental data: the CheMixHub ionic liquid set

Assay: xn = mol fraction of the nth substance listed

CCCCCC[n+]1ccn(C)c1.O=S(=O)([N-]S(=O)(=O)C(F)(F)F)C(F)(F)F + CN(C)C=O
298.15 K, 100 kPa
Settings	electrical conductivity [S/m]
x1 = 0.06572	0.9
x1 = 0.09821	1.1
x1 = 0.1404	1.2
x1 = 0.1968	1.4
x1 = 0.275	1.2

CCCCCC[n+]1ccn(C)c1.[Br-] + CC(=O)Oc1ccccc1C(=O)O + CC#N
viscosity [mPa·s], 101 kPa
Settings	288.15 K	298.15 K	308.15 K	318.15 K
x2 = 0, x1 = 0.004174	0.403	0.364	0.333	0.306
x2 = 0, x1 = 0.008131	0.424	0.383	0.35	0.322
x2 = 0, x1 = 0.01172	0.424	0.389	0.371	0.342

NCCO + CCCC[n+]1ccn(C)c1.O=[N+]([O-])[O-] + O
Settings	viscosity [mPa·s]
313 K, 100 kPa, x2 = 0, x3 = 0.8878	1.963

CC[n+]1ccn(C)c1.COS(=O)(=O)[O-] + CCO
viscosity [mPa·s], 101 kPa
Settings	283.15 K	293.15 K	303.15 K	313.15 K	323.15 K
x1 = 0.0561	2.15	1.77	1.48	1.24	1.04
x1 = 0.112	2.99	2.44	2.02	1.7	1.44
x1 = 0.213	5.56	4.37	3.53	2.81	2.36
x1 = 0.3285	9.85	7.62	6.01	4.85	3.98
x1 = 0.356	11.14	8.61	6.78	5.44	4.44
x1 = 0.525	23.46	17.1	12.99	10.15	8.15
x1 = 0.632	38.01	26.49	19.73	14.91	11.58
x1 = 0.7294	55	36.84	26.04	19.5	15
x1 = 0.8202	76.5	49.25	33.81	24.48	18.59
x1 = 0.9108	106.9	66	43.92	30.93	22.87
x1 = 0.9556	124.7	75.7	49.57	34.48	25.22
x1 = 1	141	84.1	57.9	39.54	28.33

OC[C@H]1O[C@@H](O[C@H]2[C@H](O)[C@@H](O)C(O)O[C@@H]2CO)[C@H](O)[C@@H](O)[C@@H]1O (some centres undefined) + CC(=O)[O-].CC[n+]1ccn(C)c1
100 kPa
Settings	viscosity [mPa·s]
292.4 K, x1 = 0.0255	339
302.1 K, x1 = 0.08067	921
312.5 K, x1 = 0.004998	61
312.5 K, x1 = 0.01515	73
322.6 K, x1 = 0.01515	45
322.6 K, x1 = 0.08067	207
332.2 K, x1 = 0.0255	39
332.2 K, x1 = 0.08067	123
342.5 K, x1 = 0.004998	20

CCCCCC[n+]1ccn(C)c1.[Br-] + NC(N)=O + O
298.15 K, 100 kPa
Settings	viscosity [mPa·s]
x2 = 0, x3 = 0.9008	6.89
x2 = 0, x3 = 0.9487	2.88
x2 = 0.008076, x3 = 0.8927	6.77
x2 = 0.008492, x3 = 0.9402	2.97
x2 = 0.01609, x3 = 0.8847	6.7
x2 = 0.01695, x3 = 0.9318	2.98
x2 = 0.02496, x3 = 0.9237	2.95
x2 = 0.02678, x3 = 0.9219	2.96
x2 = 0.03154, x3 = 0.8693	6.78
x2 = 0.03322, x3 = 0.9155	2.98
x2 = 0.03874, x3 = 0.8621	6.76
x2 = 0.0408, x3 = 0.9079	3.02
